Legend:
Assay in all cases: Quantitative fluorescence assay for matrix metalloproteinases (cleavage of Mca-Pro-Leu-Gly-Leu-Dpa-Ala-Arg-NH2)
Format in all cases: biochemical
[1] = biological target: T1, katalytische Domäne der MMP-3 (Homo sapiens, UniProt P08254); details: for Ki: Dixon plot
T1 construct: Die katalytische Domäne der humanen MMP-3 wurde nach den Angaben in folgender Publikation kloniert; made in house
Experimental: Die katalytische Domäne der humanen MMP-3 wurde nach den Angaben in folgender Publikation kloniert: Ye Q-Z, Johnson LL, Hupe DJ, Baragi V: Purification and Characterization of the Human Stromelysin Catalytic Domain Expressed in Escherichia coli. Biochemistry (1992), 31, 11231-11235). Nach Rückfaltung des Enzyms und Gelfiltration an Sephadex G-50 (Laufpuffer 100 mM Tris-HCI pH 7,5, 10 mM CaCl2, 100 mM NaCI, 0,05% Brij 35) erhielten wir ein zu 95% reines Präparat.
(§1) Durch enzymatische Spaltung des synthetischen Substrates Mca-Pro-Leu-Gly-Leu-Dpa-Ala-Arg-NH2 durch die jeweilige Kollagenase, wird die fluoreszente Gruppe Mca ((7-Methoxycoumarin-4-yl)acetyl) vom internen Quencher Dpa ((N-3-(2,4-dinitrophenyl)-L-2,3-diaminopropienyl) getrennt. Dabei erfolgt eine starke Zunahme der Fluoreszenz im Messansatz, die am Fluorimeter quantifiziert werden kann (λex 328 nm, λem 393 nm) und innerhalb der ersten Minuten linear verläuft. Eine gewisse Spezifität des Tests für Matrix-Metalloproteinasen ergibt sich einerseits aus der Aminosäuresequenz -Pro-Leu-Gly-Leu- im Substrat und andererseits durch die gewählten Inkubationsbedingungen. Matrix-Metalloproteinasen spalten das Substrat an der Bindung Gly-Leu. Gemessen wird die proteolytische Restaktivität vorinkubierter Ansätze von Enzym und Inhibitor, wobei die Substrat- und Enzymkonzentration konstant gehalten und die Inhibitorkonzentration variiert wurde. Es wurden für jeden getesteten Inhibitor drei Messreihen mit unterschiedlicher Substratkonzentration aufgenommen. Aus der zeitabhängigen Fluoreszenzzunahme wird die Enzymaktivität in Fluoreszenzeinheiten pro min berechnet. Die Bestimmung der Ki-Werte erfolgte graphisch nach der Methode von DIXON (1953) durch Auftragung der reziproken Reaktionsgeschwindigkeit 1/v (y-Achse) gegen Inhibitorkonzentration (x-Achse).
(§2) 1984 µl Messpuffer (100mM Tris-HCI pH 7,5, 100 mM NaCI, 10 mM CaCl2, 0,05% Brij 35 bzw. 50 mM MES-NaOH, pH 6.0, 10 mM CaCl2, 100 mM NaCI, 0.05% Brij 35 im Fall der KaDo MMP-3) 2 µl Inhibitor, gelöst in DMSO, bzw. DMSO allein (nichtinhibierender Ansatz) 4 µl Enzym • 5 min. Vorinkubation des Enzym-Inhibitor-Gemischs bei Raumtemperatur unter Rühren • Start der Reaktion mit 10 µl Substrat gelöst in DMSO • Aufzeichnung der zeitabhängigen Fluoreszenzzunahme über 2 - 10 min.

[2] = biological target: T2, katalytische Domäne der MMP-8 (Homo sapiens, UniProt P22894)
T2 construct: dass wir statt des Gesamtenzyms nur dessen enzymatisch aktive katalytische Domäne in E. coli klonierten; made in house; host or cells: E. coli
T2 sequence (P22894 100-262 limits assumed): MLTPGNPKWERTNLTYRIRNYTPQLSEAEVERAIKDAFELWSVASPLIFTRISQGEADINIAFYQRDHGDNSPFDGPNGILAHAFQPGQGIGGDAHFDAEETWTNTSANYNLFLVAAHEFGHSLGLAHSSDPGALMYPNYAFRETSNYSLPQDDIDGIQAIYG
Description: Die Nutzung der katalytischen Domäne der MMP-8 als weiteres Testenzym wurde deshalb gewählt, weil es eine hohe Stabilität besitzt und darüber hinaus als aktives Enzym vorliegt. Es muß deshalb nicht aktiviert werden, was eine der häufigsten Fehlerursachen darstellt, da die zur Aktivierung genutzten Quecksilberverbindungen häufig mit dem Testsystem bzw. dem Enzym interferieren und dadurch die Messergebnisse verfälschen werden. Die Klonierungsstrategie gestalteten wir so, dass wir statt des Gesamtenzyms nur dessen enzymatisch aktive katalytische Domäne in E. coli klonierten. Mit der konstruierten katalytischen Domäne der MMP-8 erzielten wir ein stabiles, enzymatisch aktives und hochreines Enzym, welches für die Routineuntersuchungen der inhibitorischen Aktivität der synthetisierten Inhibitoren sehr gut geeignet war und die Messergebnisse der einzelnen Messserien miteinander vergleichbar machte. Die Klonierung und Expression der katalytischen Domäne der MMP-8 wurde entsprechend den Angaben von SCHNIERER et al. (Schnierer S, Kleine T, Gote T, Hillemann A, Knäuper V, Tschesche H: The recombinant catalytic domain of human neutrophil collagenase lacks type I collagen substrate specificity. Biochem Biophys Res Comm (1993) vol. 191 No. 2, 319-326) durchgeführt.
as §1, §2

[3] = biological target: T3, katalytische Domäne der MT1-MMP (Homo sapiens, UniProt P50281)
T3 construct: Die katalytische Domäne der humanen MT1-MMP wurde nach den Angaben in folgender Publikation kloniert; made in house
Experimental: Die katalytische Domäne der humanen MT1-MMP wurde nach den Angaben in folgender Publikation kloniert: Lichte A, Kolkenbrock H, Tschesche H: The recombinant catalytic domain of membrane-type matrix metalloproteinase-1 (MT1-MMP) induces activation of progelatinase A and progelatinase A complexed with TIMP-2. FEBS letters (1996), 397, 277-282.
Nach Rückfaltung des Enyzms, Autoprozessierung zur aktiven Form und Gelfiltration an Sephadex G-50 (Laufpuffer 20 mM Tris-HCI pH 7,5, 5 mM CaCl2, 100 mM NaCI, 0,1 mM ZnCl2, 0,02% (w/v) Natriumazid) erhielten wir ein zu 95% reines Präparat.
as §1, §2

[4] = result in words, concentration not given

T1 sequence (P08254 100-272 limits assumed): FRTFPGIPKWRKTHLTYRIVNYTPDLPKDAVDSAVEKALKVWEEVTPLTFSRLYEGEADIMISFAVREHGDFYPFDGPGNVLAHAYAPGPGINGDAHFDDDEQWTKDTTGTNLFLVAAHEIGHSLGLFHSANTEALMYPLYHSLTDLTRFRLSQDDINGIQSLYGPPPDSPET

SMILES	MMP-3 Hemmung ([1]; bei 10 µM) [% Hemmung bei 10 µM]	MMP-8 Hemmung ([2]; bei 10 µM) [% Hemmung bei 10 µM]	MT1-MMP Hemmung ([3]; bei 10 µM) [% Hemmung bei 10 µM]	further results
O=c1[nH]c2ccccc2c(=O)n1CC(S)CS (racemic) [Beispiel 1, (R,S)-3-(2,3-Dimercaptopropyl)chinazolin-2,4-(1H,3H)dion]	70	70	40	
O=c1[nH]c2cc(Cl)ccc2c(=O)n1CC(S)CS (racemic) [Beispiel 3, (R,S)-7-Chlor-3-(2,3-dimercaptopropyl)chinazolin-2,4-(1H,3H)dion]	97	87	73	
O=c1[nH]c2ccc(Cl)cc2c(=O)n1CC(S)CS (racemic) [Beispiel 4, (R,S)-6-Chlor-3-(2,3-dimercaptopropyl)chinazolin-2,4-(1H,3H)dion]	15	60	60	
Cc1cccc2[nH]c(=O)n(CC(S)CS)c(=O)c12 (racemic) [Beispiel 5, (R,S)-3-(2,3-Dimercaptopropyl)-5-methyl-chinazolin-2,4-(1H,3H)dion]	90	70	80	
COc1cc2[nH]c(=O)n(CC(S)CS)c(=O)c2cc1OC (racemic) [Beispiel 7, (R,S)-3-(2,3-Dimercaptopropyl)-6,7-dimethoxy-chinazolin-2,4-(1H,3H)dion]				Ki [1]: 1 µM; MMP-8 Hemmung ([2]; bei 1 µM): 20% Hemmung bei 1 µM; MT1-MMP Hemmung [3, 4]: keine Hemmung
O=C(NCc1ccccc1)c1ccc2c(=O)n(CC(S)CS)c(=O)[nH]c2c1 (racemic) [Beispiel 8, (R,S)-N-Benzyl-3-(2,3-dimercaptopropyl)-2,4-dioxo-1,2,3,4-tetrahydrochinazolin-7-carboxamide]				MMP-3 Hemmung ([1]; bei 5 µM): 30% Hemmung bei 5 µM; MMP-8 Hemmung ([2]; bei 5 µM): 30% Hemmung bei 5 µM; MT1-MMP Hemmung ([3]; bei 5 µM): 30% Hemmung bei 5 µM
O=c1[nH]c2ccsc2c(=O)n1CC(S)CS (racemic) [Beispiel 9, (R,S)-3-(2,3-Dimercaptopropyl)thieno[3,2-d]pyrimidin-2,4(1H,3H)-dion]				Ki [1]: 0.25 µM; MMP-8 Hemmung ([2]; bei 2,5 µM): 50% Hemmung bei 2,5 µM; MT1-MMP Hemmung ([3]; bei 3 µM): 50% Hemmung bei 3 µM
O=c1[nH]c2sc3c(c2c(=O)n1CC(S)CS)CCCC3 (racemic) [Beispiel 10, (R,S)-3-(2,3-Dimercaptopropyl)-5,6,7,8-tetrahydro[1]benzothieno[2,3-d]pyrimidin-2,4(1H,3H)-dion]	55	39	42	
O=c1[nH]c2sc(-c3ccccc3)cc2c(=O)n1CC(S)CS (racemic) [Beispiel 11, (R,S)-3-(2,3-Dimercaptopropyl)-6-phenylthieno[2,3-d]pyrimidin-2,4(1H,3H)-dion]				MMP-3 Hemmung [1, 4]: Keine Hemmung; MMP-8 Hemmung ([2]; bei 1 µM): 30% Hemmung bei 1 µM; MT1-MMP Hemmung [3, 4]: Keine Hemmung

— patent EP1357114A1, “Substituted pyrimidin-2,4(1H,3H)-diones as inhibitors of Matrix Metalloproteinases (MMP)” (IBFB GmbH Privates Institut für biomedizinische Forschung …, priority 2002, dated 2003)
